Results from patent US11649242B2, “Pyrrolopyrrole compositions as pyruvate kinase (PKR) activators” (FORMA Therapeutics, Inc., priority 2017, dated 2023).

How the values were obtained:
Type in all cases: biochemical
[1] = target: PKR(R510Q) (Homo sapiens, UniProt P30613, R510Q); experiment: Luminescence Assay Protocol (Kinase Glo Plus), PKR(R510Q/without FBP); conditions: PKRR510Q, without FBP; for activation at 1.54 µM / F - AC50 LUM KGP woFBP % Fold @ 1.54 μM mean: compound 1.54 μM; for activation at 1.54 µM: read-out: F - AC50 LUM KGP woFBP % Fold @ 1.54 μM mean; for AC50: gmean, read-out: D - AC50 LUM KGP woFBP AC50 μM gmean; for Emax / E - AC50 LUM KGP woFBP MAX % FOLD mean: highest % fold increase at any concentration; for Emax: read-out: E - AC50 LUM KGP woFBP MAX % FOLD mean
Sequence of PKR(R510Q) (P30613 whole entry R510Q): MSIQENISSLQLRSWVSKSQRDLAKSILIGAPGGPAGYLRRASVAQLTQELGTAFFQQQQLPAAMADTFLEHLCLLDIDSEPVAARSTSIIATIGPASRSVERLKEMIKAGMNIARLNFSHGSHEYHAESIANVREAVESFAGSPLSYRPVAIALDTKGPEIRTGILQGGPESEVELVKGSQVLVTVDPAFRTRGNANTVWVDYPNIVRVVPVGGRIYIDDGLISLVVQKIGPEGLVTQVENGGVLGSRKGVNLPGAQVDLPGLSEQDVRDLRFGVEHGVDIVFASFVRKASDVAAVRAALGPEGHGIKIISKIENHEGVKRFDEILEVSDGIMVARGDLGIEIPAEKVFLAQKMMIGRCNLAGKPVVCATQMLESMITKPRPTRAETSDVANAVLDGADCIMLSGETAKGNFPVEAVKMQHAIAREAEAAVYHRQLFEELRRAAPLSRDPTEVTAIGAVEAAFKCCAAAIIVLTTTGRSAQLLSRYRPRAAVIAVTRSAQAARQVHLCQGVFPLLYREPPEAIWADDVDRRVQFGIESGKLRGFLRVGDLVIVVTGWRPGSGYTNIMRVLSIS
How it was run: (§1)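 Enzyme (wt 0.8 nM, R510Q 0.8 nM, G332S 10 nM) was preincubated 30 min at RT with compound and 100 μM PEP in Tris/KCl/MgCl2 buffer, then started with 100 μM ADP, plus 30 μM FBP for G332S. Luminescence was read after 45 min at RT. AC50 came from a four-parameter fit of % fold over DMSO across 42.5 μM–2.2 nM.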

[2] = target: PKR(wt) (Homo sapiens, UniProt P30613); experiment: Luminescence Assay Protocol (Kinase Glo Plus), PKR(Wt/without FBP); conditions: without FBP; for activation at 1.54 µM / I - AC50 LUM KGP woFBP % Fold @ 1.54 μM mean: compound 1.54 μM; for activation at 1.54 µM: read-out: I - AC50 LUM KGP woFBP % Fold @ 1.54 μM mean; for AC50: gmean, read-out: G - AC50 LUM KGP woFBP AC50 μM gmean; for Emax / H - AC50 LUM KGP woFBP MAX % FOLD mean: highest % fold increase at any concentration; for Emax: read-out: H - AC50 LUM KGP woFBP MAX % FOLD mean
Sequence of PKR(wt) (P30613 whole entry): as the sequence (P30613 whole entry R510Q) above, with Q510R counted along it
How it was run: as §1

[3] = target: PKR(G332S) (Homo sapiens, UniProt P30613, G332S); experiment: Luminescence Assay Protocol (Kinase Glo Plus), PKR(G332S/with FBP); conditions: PKRG332S, with FBP; for activation at 1.54 µM: read-out: C - AC50 LUM KGP FBP % Fold @ 1.54 μM mean; for AC50: gmean, read-out: A - AC50 LUM KGP FBP AC50 μM gmean; for Emax: read-out: B - AC50 LUM KGP FBP MAX % FOLD mean
Sequence of PKR(G332S) (P30613 whole entry G332S): as the sequence (P30613 whole entry R510Q) above, with G332S, Q510R counted along it
How it was run: as §1

[4] = highest % fold increase at any concentration

| Compound | activation at 1.54 µM [1] [%] | AC50 [1] [µM] | Emax [1] [%] | activation at 1.54 µM [2] [%] | AC50 [2] [µM] | Emax [2] [%] | activation at 1.54 µM ([3]; compound 1.54 μM) [%] | AC50 [3] [µM] | Emax [3, 4] [%] | E - AC50 LUM KGP woFBP MAX % FOLD mean [1] | H - AC50 LUM KGP woFBP MAX % FOLD mean [2] | F - AC50 LUM KGP woFBP % Fold @ 1.54 μM mean [1] | I - AC50 LUM KGP woFBP % Fold @ 1.54 μM mean [2] | C - AC50 LUM KGP FBP % Fold @ 1.54 μM mean ([3]; compound 1.54 μM) | B - AC50 LUM KGP FBP MAX % FOLD mean [3, 4] |
| --- | --- | --- | --- | --- | --- | --- | --- | --- | --- | --- | --- | --- | --- | --- | --- |
| CC(C)(CO)C(=O)N1CC2=C(C1)CN(S(=O)(=O)c1ccc3c(c1)NCCO3)C2 [Example 37, 1-(5-((3,4-dihydro-2H-benzo[b][1,4]oxazin-6-yl)sulfonyl)-3,4,5,6-tetrahydropyrrolo[3,4-c]pyrrol-2(1H)-yl)-3-hydroxy-2,2-dimethylpropan-1-one] | 250 to 500 | ≤ 0.1 | 250 to 500 | 75 to 250 | 0.1 to 1 | 75 to 250 | 75 to 250 | > 40 | 75 to 250 |  |  |  |  |  |  |
| O=C([C@H](CO)c1ccccc1)N1CC2=C(C1)CN(S(=O)(=O)c1ccc(C(F)(F)F)nc1)C2 [Example 52, (2S)-3-hydroxy-2-phenyl-1-(5-{[6-(trifluoromethyl)pyridin-3-yl]sulfonyl}-1H,2H,3H,4H,5H,6H-pyrrolo[3,4-c]pyrrol-2-yl)propan-1-one] | 75 to 250 | 1 to 40 | 250 to 500 | 75 to 250 | 0.1 to 1 | 75 to 250 | 75 to 250 | 0.1 to 1 | 75 to 250 |  |  |  |  |  |  |
| CC(C)(CO)C(=O)N1CC2=C(C1)CN(S(=O)(=O)c1ccc3ncsc3c1)C2 [Example 19, 1-(5-(benzo[d]thiazol-6-ylsulfonyl)-3,4,5,6-tetrahydropyrrolo[3,4-c]pyrrol-2(1H)-yl)-3-hydroxy-2,2-dimethylpropan-1-one] | 75 to 250 | 0.1 to 1 | 250 to 500 | 75 to 250 | 0.1 to 1 | 75 to 250 | 75 to 250 | > 40 | 75 to 250 |  |  |  |  |  |  |
| O=C([C@H](CO)c1ccccc1)N1CC2=C(C1)CN(S(=O)(=O)c1ccccn1)C2 [Example 51, (2S)-3-hydroxy-2-phenyl-1-[5-(pyridine-2-sulfonyl)-1H,2H,3H,4H,5H,6H-pyrrolo[3,4-c]pyrrol-2-yl]propan-1-one] | 250 to 500 | ≤ 0.1 | 250 to 500 | 250 to 500 | ≤ 0.1 | 250 to 500 | 75 to 250 | 0.1 to 1 | 75 to 250 |  |  |  |  |  |  |
| COCC1(C(=O)N2CC3=C(C2)CN(S(=O)(=O)c2ccc4c(c2)NCCO4)C3)CC1 [Example 36, (5-((3,4-dihydro-2H-benzo[b][1,4]oxazin-6-yl)sulfonyl)-3,4,5,6-tetrahydropyrrolo[3,4-c]pyrrol-2(1H)-yl)(1-(methoxymethyl)cyclopropyl)methanone] | 75 to 250 | 1 to 40 | 75 to 250 | 75 to 250 | 0.1 to 1 | 75 to 250 | 75 to 250 | > 40 | 75 to 250 |  |  |  |  |  |  |
| O=C(C(CO)c1ccccn1)N1CC2=C(C1)CN(S(=O)(=O)c1cnc3c(c1)OCCO3)C2 (single isomer, unassigned) [Example 3, (R or S)-1-(5-((2,3-dihydro-[1,4]dioxino[2,3-b]pyridin-7-yl)sulfonyl)-3,4,5,6-tetrahydropyrrolo[3,4-c]pyrrol-2(1H)-yl)-3-hydroxy-2-(pyridin-2-yl)propan-1-one] |  | 0.1 to 1 |  |  | ≤ 0.1 |  | 75 to 250 | 1 to 40 | 75 to 250 | +++ (>250% and ≤500% (+++)) | ++ (>75% and ≤250% (++)) | ++ (>75% and ≤250% (++)) | ++ (>75% and ≤250% (++)) |  |  |
| O=C([C@@H](CO)c1ccccc1)N1CC2=C(C1)CN(S(=O)(=O)c1ccc3ncsc3c1)C2 [Example 30, (R)-1-(5-(benzo[d]thiazol-6-ylsulfonyl)-3,4,5,6-tetrahydropyrrolo[3,4-c]pyrrol-2(1H)-yl)-3-hydroxy-2-phenylpropan-1-one] | 250 to 500 | 0.1 to 1 | 250 to 500 | 250 to 500 | 0.1 to 1 | 250 to 500 | 75 to 250 | 0.1 to 1 | 75 to 250 |  |  |  |  |  |  |

Now from value to molecule:

| activation at 1.54 µM [1] [%] | AC50 [1] [µM] | Emax [1] [%] | activation at 1.54 µM [2] [%] | AC50 [2] [µM] | Emax [2] [%] | activation at 1.54 µM ([3]; compound 1.54 μM) [%] | AC50 [3] [µM] | Emax [3, 4] [%] | E - AC50 LUM KGP woFBP MAX % FOLD mean [1] | H - AC50 LUM KGP woFBP MAX % FOLD mean [2] | F - AC50 LUM KGP woFBP % Fold @ 1.54 μM mean [1] | I - AC50 LUM KGP woFBP % Fold @ 1.54 μM mean [2] | C - AC50 LUM KGP FBP % Fold @ 1.54 μM mean ([3]; compound 1.54 μM) | B - AC50 LUM KGP FBP MAX % FOLD mean [3, 4] | Compound |
| --- | --- | --- | --- | --- | --- | --- | --- | --- | --- | --- | --- | --- | --- | --- | --- |
| 250 to 500 | ≤ 0.1 | 250 to 500 | 250 to 500 | ≤ 0.1 | 250 to 500 | 75 to 250 | ≤ 0.1 | 75 to 250 |  |  |  |  |  |  | O=C(C(CO)c1ccccn1)N1CC2=C(C1)CN(S(=O)(=O)c1ccc(OC(F)F)cc1)C2 (single isomer, unassigned) [Example 41, (S or R)-1-(5-((4-(difluoromethoxy)phenyl)sulfonyl)-3,4,5,6-tetrahydropyrrolo[3,4-c]pyrrol-2(1H)-yl)-3-hydroxy-2-(pyridin-2-yl)propan-1-one] |
| 75 to 250 | 1 to 40 | 250 to 500 | 75 to 250 | 0.1 to 1 | 250 to 500 | 75 to 250 | 0.1 to 1 | 75 to 250 |  |  |  |  |  |  | O=C([C@H]1CCOC1)N1CC2=C(C1)CN(S(=O)(=O)c1ccc(OC(F)F)cc1)C2 [Example 16, (S)-(5-((4-(difluoromethoxy)phenyl)sulfonyl)-3,4,5,6-tetrahydropyrrolo[3,4-c]pyrrol-2(1H)-yl)(tetrahydrofuran-3-yl)methanone] |
| 75 to 250 | 1 to 40 | 250 to 500 | 75 to 250 | 0.1 to 1 | 250 to 500 | 75 to 250 | 0.1 to 1 | 75 to 250 |  |  |  |  |  |  | O=C([C@@H]1CCOC1)N1CC2=C(C1)CN(S(=O)(=O)c1ccc3ncsc3c1)C2 [Example 20, (R)-(5-(benzo[d]thiazol-6-ylsulfonyl)-3,4,5,6-tetrahydropyrrolo[3,4-c]pyrrol-2(1H)-yl)(tetrahydrofuran-3-yl)methanone] |
| 75 to 250 | > 40 |  | 75 to 250 | 1 to 40 |  | 75 to 250 | 1 to 40 | 75 to 250 | ++ (>75% and ≤250% (++)) | ++ (>75% and ≤250% (++)) |  |  |  |  | O=C(C1CCCOC1)N1CC2=C(C1)CN(S(=O)(=O)c1ccccn1)C2 (single isomer, unassigned) [Example 44, (R or S)-(5-(pyridin-2-ylsulfonyl)-3,4,5,6-tetrahydropyrrolo[3,4-c]pyrrol-2(1H)-yl)(tetrahydro-2H-pyran-3-yl)methanone] |
|  | ≤ 0.1 |  |  | ≤ 0.1 |  |  | 0.1 to 1 |  | +++ (>250% and ≤500% (+++)) | ++ (>75% and ≤250% (++)) | +++ (>250% and ≤500% (+++)) | ++ (>75% and ≤250% (++)) | ++ (>75% and ≤250% (++)) | ++ (>75% and ≤250% (++)) | O=C(C1CCCOC1)N1CC2=C(C1)CN(S(=O)(=O)c1ccc3c(c1)NCCO3)C2 (single isomer, unassigned) [Example 34, (R or S)-(5-((3,4-dihydro-2H-benzo[b][1,4]oxazin-6-yl)sulfonyl)-3,4,5,6-tetrahydropyrrolo[3,4-c]pyrrol-2(1H)-yl)(tetrahydro-2H-pyran-3-yl)methanone] |
| 250 to 500 | ≤ 0.1 | 250 to 500 | 250 to 500 | ≤ 0.1 | 250 to 500 | 75 to 250 | ≤ 0.1 | 75 to 250 |  |  |  |  |  |  | O=C(C(CO)c1ccccc1)N1CC2=C(C1)CN(S(=O)(=O)c1ccc(OC(F)F)cc1)C2 (stereo not drawn) [Example 49, 1-(5-((4-(difluoromethoxy)phenyl)sulfonyl)-3,4,5,6-tetrahydropyrrolo[3,4-c]pyrrol-2(1H)-yl)-3-hydroxy-2-phenylpropan-1-one] |
|  | 1 to 40 | 250 to 500 | 75 to 250 | 1 to 40 | 75 to 250 | 75 to 250 | > 40 | 75 to 250 |  |  | ++ (>75% and ≤250% (++)) |  |  |  | O=C(C1CCCOC1)N1CC2=C(C1)CN(S(=O)(=O)c1ccc3c(c1)NCCO3)C2 (single isomer, unassigned) [Example 33, (S or R)-(5-((3,4-dihydro-2H-benzo[b][1,4]oxazin-6-yl)sulfonyl)-3,4,5,6-tetrahydropyrrolo[3,4-c]pyrrol-2(1H)-yl)(tetrahydro-2H-pyran-3-yl)methanone] |
